Reference: US20220107328A1, “METHODS OF TREATING LIVER DISEASES” (Camp4 Therapeutics Corporation, priority 2018, published 2022)
Where a name gives a salt, the structure may show the parent alone.

Legend:
PNPLA3 mRNA [1] = assay: qRT-PCR of PNPLA3 mRNA in compound-treated mouse hepatocytes; assay type: cell-based; settings: mouse hepatocytes, 1 μM, normalized to ACTB
Experimental: Analysis of the fold changes in expression as measured by qRT-PCR were performed using the technique below. The control was DMSO, and the treatment was the selected compound (CPD). The internal control was GAPDH or B-Actin (or otherwise indicated), and the gene of interest is the target. First, the averages of the 4 conditions were calculated for normalization: DMSO:GAPDH, DMSO:Target, CPD: GAPDH, and CPD:Target. Next, the ΔCT of both control and treatment were calculated to normalize to internal control (GAPDH) using (DMSO:Target)−(DMSO:GAPDH)=ΔCT control and (CPD:Target)−(CPD: GAPDH)=ΔCT experimental. Then, the ΔΔCT was calculated by ΔCT experimental−ΔCT control. The Expression Fold Change (or Relative Quantification, abbreviated as RQ) was calculated by 2−(ΔΔCT) (2-fold expression change was shown by RNA-Seq results provided herein).
Compounds were tested at concentrations ranging from 0.01 μM to 50 μM. […] PNPLA3 levels were normalized to the level of a house keeping gene ACTB.

PNPLA3 mRNA [2] = assay: qRT-PCR of PNPLA3 mRNA in human primary hepatic stellate cells; assay type: cell-based; settings: 3 μM, relative to GAPDH
COL1A1 mRNA = assay: qRT-PCR of COL1A1 mRNA in human primary hepatic stellate cells; assay type: cell-based; settings: 3 μM, relative to GAPDH
PCSK9 mRNA = assay: qRT-PCR of PCSK9 mRNA in primary hepatocytes; assay type: cell-based, human; settings: donor 4178, 3 μM, relative to GUSB
PNPLA3 mRNA [3] = assay: qRT-PCR of PNPLA3 mRNA in compound-treated primary human hepatocytes; settings: for Primary Hepatocytes 4178 PNPLA3 (fold change in mRNA expression): donor 4178, 3 μM; for Primary Hepatocytes 4178 PNPLA3 (fold change in mRNA expression) / Primary Hepatocytes 4282 PNPLA3 (fold change in mRNA expression): relative to GUSB; for Primary Hepatocytes 4282 PNPLA3 (fold change in mRNA expression): donor 4282, 3 μM; for Relative PINPLA3 mRNA: hepatocytes; for PNPLA3 expression by reported compound specificity (in words): summary of mTOR/PI3K inhibitor testing

| Primary Hepatocytes 4178 PCSK9 (fold change in mRNA expression) (PCSK9 mRNA) | Primary Hepatocytes 4178 PNPLA3 (fold change in mRNA expression) (PNPLA3 mRNA [3]) | Primary Hepatocytes 4282 PNPLA3 (fold change in mRNA expression) (PNPLA3 mRNA [3]) | SMILES | Primary Stellate cells PNPLA3 (fold change in mRNA expression) (PNPLA3 mRNA [2]) | Primary Stellate cells COL1A1 (fold change in mRNA expression) (COL1A1 mRNA) | further results |
| --- | --- | --- | --- | --- | --- | --- |
| 0.50 | 0.47 | 0.60 | Nc1cc(C(F)(F)F)c(-c2nc(N3CCOCC3)nc(N3CCOCC3)n2)cn1 [PQR309] | 0.88 | 0.81 | Relative PINPLA3 mRNA (PNPLA3 mRNA [3]; 0.1 uM): 1.353; Relative PINPLA3 mRNA (PNPLA3 mRNA [3]; 0.3 uM): 0.8236; Relative PINPLA3 mRNA (PNPLA3 mRNA [3]; 1 uM): 0.5267; Relative PINPLA3 mRNA (PNPLA3 mRNA [3]; 3 uM): 0.4657; PNPLA3 expression by reported compound specificity (in words) (PNPLA3 mRNA [3]): most robust PNPLA3 inhibition |
| 0.47 | 0.58 | 0.60 | Cc1nc(-c2cn3c(n2)-c2ccc(-c4cnn(C(C)(C)C(N)=O)c4)cc2OCC3)n(C(C)C)n1 [GDC-0032] | 0.61 | 1.05 | – |
| 0.74 | 0.68 | 0.68 | C[C@H](NC(=O)c1c(N)nn2cccnc12)c1cc2cccc(C#Cc3cnn(C)c3)c2c(=O)n1-c1ccccc1 [IPI-549] | 0.75 | 1.00 | – |
| 0.75 | 0.60 | 0.70 | Nc1cc(C(F)(F)F)c(-c2cc(N3CCOCC3)nc(N3CCOCC3)n2)cn1 [NVP-BKM120] | 0.43 | 0.66 | – |
| 1.11 | 1.10 | 0.94 | CCOC(=O)C1=C(N)Oc2ccc(Cl)cc2C1C(C#N)C(=O)OCC (stereo not shown) [SC79] | 0.85 | 0.98 | – |
| 0.67 | 0.72 | 0.62 | Cc1nc(-c2cn3c(n2)-c2ccc(-c4cnn(C(C)(C)C(N)=O)c4)cc2OCC3)n(C(C)C)n1 [Taselisib (GDC 0032)] | 0.77 | 1.32 | – |
| 0.65 | 0.80 | 1.00 | CO[C@@H](C)Cn1c(=O)n(C)c2cnc3ccc(-c4cncc(C(C)(C)O)c4)cc3c21 [LY3023414] | 0.94 | 0.49 | – |
| 0.91 | 0.92 | 0.80 | COc1ncc(-c2ccc3nccc(-c4ccnnc4)c3c2)cc1NS(=O)(=O)c1ccc(F)cc1F [GSK2126458] | 0.90 | 0.42 | Relative PINPLA3 mRNA (PNPLA3 mRNA [3]; 1 uM): 0.395; Relative PINPLA3 mRNA (PNPLA3 mRNA [3]; 10 uM): 0.800 |
| 0.69 | 1.57 | 0.97 | Nc1nc2cc(-c3ccc4ncc(C(=O)N5CCOCC5)n4c3)ccc2o1 [MLN1117] | 0.70 | 1.14 | – |
| 0.50 | 0.56 | 0.70 | Nc1cc(C(F)(F)F)c(-c2cc(N3CCOCC3)nc(N3CCOCC3)n2)cn1 [NVP-BKM120 (Hydrochloride)] | 0.43 | 0.70 | – |
| 1.04 | 1.10 | 1.20 | O=[N+]([O-])c1ccc(Nc2nc(N3CCOCC3)nc(N3CCOCC3)n2)cc1 [MHY1485] | 0.86 | 0.87 | – |
| 0.66 | 0.60 | 0.80 | FC(F)c1nc2ccccc2n1-c1nc(N2CCOCC2)nc(N2CCOCC2)n1 [ZSTK474] | 0.68 | 0.71 | – |

The next lines start with the molecule.

| SMILES | Primary Hepatocytes 4178 PCSK9 (fold change in mRNA expression) (PCSK9 mRNA) | Primary Hepatocytes 4178 PNPLA3 (fold change in mRNA expression) (PNPLA3 mRNA [3]) | Primary Hepatocytes 4282 PNPLA3 (fold change in mRNA expression) (PNPLA3 mRNA [3]) | Primary Stellate cells PNPLA3 (fold change in mRNA expression) (PNPLA3 mRNA [2]) | Primary Stellate cells COL1A1 (fold change in mRNA expression) (COL1A1 mRNA) | further results |
| --- | --- | --- | --- | --- | --- | --- |
| c1cncc(CN2CCC(n3ncc4c(N5CCOCC5)nc(-c5ccc6[nH]ccc6c5)nc43)CC2)c1 [WAY600] | – | – | – | – | – | Relative PNPLA3 mRNA levels (PNPLA3 mRNA [1]): 0.67 ± 0.21 |
| CCn1c(=O)c(-c2cc[nH]n2)cc2c(C)nc(N)nc21 [Voxtalisib] | – | – | – | – | – | Relative PNPLA3 mRNA levels (PNPLA3 mRNA [1]): 0.31 ± 0.08 |
| COc1ccc(-c2nc(N3CCOCC3)c3sc(CN(C)c4ncc(C(=O)NO)cn4)cc3n2)cn1 [CUDC-907] | 0.83 | 0.50 | 0.50 | 1.33 | 0.41 | – |
| Cn1cc(-c2nc(N[C@@H]3CCCC[C@@H]3N)c(F)c3c2C(=O)NC3)cn1 [TAK-659] | – | – | – | – | – | Relative PNPLA3 mRNA levels (PNPLA3 mRNA [1]): 0.31 ± 0.12; Relative PNPLA3 mRNA levels (PNPLA3 mRNA [3]; Syk pathway inhibitors, 10 μM, human hepatocytes, normalized to B2M, mean of three replicates ± standard deviation): 0.44 ± 0.11 |
| CC(C)Oc1ccc(-c2nn([C@@H](C)c3oc4ccc(F)cc4c(=O)c3-c3cccc(F)c3)c3ncnc(N)c23)cc1F [umbralisib (TGR-1202)] | 0.80 | 0.90 | 0.80 | 1.10 | 1.15 | – |
| C[C@H](Nc1ncnc2[nH]cnc12)c1cc2ccc(F)cc2nc1-c1ccccn1 [AMG319] | 0.74 | 0.73 | 0.85 | 0.99 | 0.99 | – |
| Cc1c(CN2CCN(C(=O)[C@H](C)O)CC2)sc2c(N3CCOCC3)nc(-c3cnc(N)nc3)nc12 [Apitolisib] | – | – | – | – | – | Primary Stellate cells PNPLA3 (fold change in mRNA expression) (PNPLA3 mRNA [2]; listed as GDC-0980): 0.67; Primary Stellate cells COL1A1 (fold change in mRNA expression) (COL1A1 mRNA; listed as GDC-0980): 0.61; Primary Hepatocytes 4178 PCSK9 (fold change in mRNA expression) (PCSK9 mRNA; listed as GDC-0980): 0.40; Primary Hepatocytes 4178 PNPLA3 (fold change in mRNA expression) (PNPLA3 mRNA [3]; listed as GDC-0980): 0.37; Primary Hepatocytes 4282 PNPLA3 (fold change in mRNA expression) (PNPLA3 mRNA [3]; listed as GDC-0980): 0.40; Relative PINPLA3 mRNA (PNPLA3 mRNA [3]; 0.1 uM): 0.893; Relative PINPLA3 mRNA (PNPLA3 mRNA [3]; 0.3 uM): 0.669; Relative PINPLA3 mRNA (PNPLA3 mRNA [3]; 1 uM): 0.420; Relative PINPLA3 mRNA (PNPLA3 mRNA [3]; 3 uM): 0.365; PNPLA3 expression by reported compound specificity (in words) (PNPLA3 mRNA [3]): most robust PNPLA3 inhibition |
| O=C1OC(COc2ccccc2[N+](=O)[O-])CC1Cc1ccccc1 (stereo not shown) [Compound 3BDO] | 1.01 | 1.10 | 1.00 | 0.91 | 1.03 | – |
| CO[C@H]1CC[C@H](N2C(=O)CNc3ncc(-c4ccc(C(C)(C)O)nc4)nc32)CC1 [CC-223] | 0.72 | 0.51 | 0.80 | 0.33 | 0.50 | – |
| Cc1c(CN2CCN(C(=O)[C@H](C)O)CC2)sc2c(N3CCOCC3)nc(-c3cnc(N)nc3)nc12 [Apitolisib (GDC-0980, RG7422)] | 0.31 | 0.32 | 0.46 | 0.56 | 0.54 | – |
| Cc1nc(NC(=O)N2CCC[C@H]2C(N)=O)sc1-c1ccnc(C(C)(C)C(F)(F)F)c1 [BYL-719] | 0.71 | 0.69 | 0.60 | 0.70 | 1.24 | – |
| C[C@@H](Nc1cc(F)cc(F)c1)c1cc(C(=O)N(C)C)cc2c(=O)cc(N3CCOCC3)oc12 [AZD8186] | 0.70 | 0.80 | 0.80 | 0.86 | 1.22 | – |
| C[C@H](Nc1ncnc2[nH]cnc12)c1nc2ccc(F)cc2c(=O)n1-c1ccccc1 [Acalisib] | 0.99 | 1.00 | 1.00 | 0.91 | 0.96 | – |
| CO[C@H]1C[C@@H]2CC[C@@H](C)[C@@](O)(O2)C(=O)C(=O)N2CCCC[C@H]2C(=O)O[C@H]([C@H](C)C[C@@H]2CC[C@@H](OP(C)(C)=O)[C@H](OC)C2)CC(=O)[C@H](C)/C=C(\C)[C@@H](O)[C@@H](OC)C(=O)[C@H](C)C[C@H](C)/C=C/C=C/C=C/1C [Deforolimus] | – | – | – | – | – | Relative PNPLA3 mRNA levels (PNPLA3 mRNA [1]): 0.30 ± 0.10 |
